From the CheMixHub ionic liquid set
± gives the uncertainty stated by the source.

Experiment: xn = mol fraction of the nth substance listed
Conditions: 101 kPa

N#C[C-](C#N)C#N.OCCC[n+]1ccccc1 + c1ccsc1
viscosity [mPa·s]
Conditions	x1 = 0.4088	x1 = 0.505	x1 = 0.5955	x1 = 0.7045	x1 = 0.8231	x1 = 0.9377	x1 = 1
293.15 K	17.5 ± 1.8	31.5 ± 3.2	48.6 ± 4.9	69.3 ± 7	94.1 ± 9.7	115 ± 12	126 ± 13
298.15 K	14.4 ± 1.4	25.1 ± 2.5	36.6 ± 3.7	52 ± 5.2	68.9 ± 7	85.4 ± 8.7	92.5 ± 9.5
303.15 K	12 ± 1.2	20.4 ± 2.1	29.3 ± 2.9	40 ± 4	52.7 ± 5.3	64.4 ± 6.5	69.5 ± 7.1
308.15 K	10.2 ± 1	16.9 ± 1.7	24.1 ± 2.4	32.4 ± 3.3	42.1 ± 4.3	49.9 ± 5	53.8 ± 5.4
313.15 K	8.69 ± 0.87	14.3 ± 1.4	19.8 ± 2	26.4 ± 2.7	33.5 ± 3.4	39.5 ± 4	42.5 ± 4.3
318.15 K	7.53 ± 0.76	12.2 ± 1.2	16.9 ± 1.7	22.1 ± 2.2	27.4 ± 2.8	32.2 ± 3.3	34.6 ± 3.5
323.15 K	6.58 ± 0.66	10.5 ± 1.1	14.2 ± 1.4	18.3 ± 1.8	22.4 ± 2.3	26.2 ± 2.7	28.1 ± 2.8
328.15 K	5.8 ± 0.58	9.03 ± 0.91	12 ± 1.2	15.4 ± 1.6	18.8 ± 1.9	21.8 ± 2.2	23.4 ± 2.4
333.15 K	5.15 ± 0.52	7.96 ± 0.8	10.5 ± 1.1	13.3 ± 1.3	16.1 ± 1.6	18.5 ± 1.9	19.8 ± 2
338.15 K	4.62 ± 0.46	7.12 ± 0.72	9.24 ± 0.93	11.5 ± 1.2	13.8 ± 1.4	15.9 ± 1.6	16.9 ± 1.7
343.15 K	4.16 ± 0.42	6.33 ± 0.64	8.11 ± 0.82	10 ± 1	11.9 ± 1.2	13.6 ± 1.4	14.5 ± 1.5
348.15 K	3.96 ± 0.4	5.89 ± 0.59	7.4 ± 0.75	9.06 ± 0.91	10.7 ± 1.1	12.3 ± 1.2	13.1 ± 1.3
